Data set [1] can be described thus: Liver microsomes stability assay, mouse. In kind it is in vitro ADME. Here is the method: page 31: using a REMS Autosampler (World Precision Instruments, Sarasota, […]1 cells were grown for 5 days to reach a consistent confluency level monitored by epithelial voltohmmeter to confirm the intactness of the confluent polarized monolayer. For transport experiments, each cultured monolayer on the 96-well plate was washed twice with a transport buffer (HBSS/25 mM […] The cell-based permeability assay was initiated by the addition of each compound solution (10 μmol/L) into inserts (apical side, A) or receivers (basolateral side, B). After incubated […] (if basal to apical permeability), and concentrations were assessed by UPLC/MS (Waters; Milford, MA). All compounds were tested in triplicates. The A→B (or B→A) apparent permeability coefficients (Papp) of each compound were calculated using the equation (3): […], where dQ/dt equals the flux of a drug across the monolayer, the parameters of A equals the surface area of total insert well, and C0 is the initial concentration of substrate in the donor compartment. The efflux ratio was determined by dividing the Papp in the B-A direction by the Papp in the A-B direction. […] NADPH regenerating agent solutions A and B (Corning GentestTM, Cat. No: 451220) were purchased from Discovery Labware (Woburn, MA). Mouse liver microsomes (CD-1, pooled, GibcoTM, Cat. No: MSMCPL) were obtained from Thermo Fisher Scientific (Fredrick, MD). Pooled human liver microsomes (mixed gender, Cat. No: E0630) were purchased from XenoTech (Lenexa, KS). Stock solutions of test compounds were prepared at 10 mM in DMSO. Sample preparation for microsomal stability was modified from Di's publications3,4. […] and 4 hours) by Labcyte Echo 650 acoustic dispenser (Beckman Coulter Life Sciences, Indianapolis, IN). All compounds were tested in triplicate per time point. […] Plasma stability assay5: The degradation of human or mouse plasma was assessed by monitoring the gradual reduction of the parent compound over specified time intervals (0, 3, 24, and 48 hours). […]

Data set [2] has as its target T1, CK1α-CRBN ternary complex (Homo sapiens, UniProt P48729+Q96SW2).
T1 construct: engineered by CRISPR/Cas9 to express endogenous CK1α (HEK293 cells) or IKZF1 (Jurkat cells) with a HiBiT tag; CS3023104 (cells)
The data set is described as follows: Live cell CK1α-CRBN ternary complex NanoBRET assay. The format is cell-based. The procedure:
CSNK1A1CK1α-HiBiT HEK293 LgBiT stable cells weretransfected with a HaloTag-CRBN vector (Promega, Cat. #N269A) using Fugene HD (Promega, Cat. #E2311). […] Plates were incubated overnight at 37 °C with 5% CO2. On day 3, a dose–response curve was generated by performing 3-fold dilutions of each compound including a DMSO-only control in OptiMEM I Reduced Serum Medium, no phenol red supplemented with 4% FBS. Cells were treated with MG132 (Selleckchem, Cat. #S2619) for 30 min before being treated with the dilution series of compounds. Plates were incubated for 2 h at 37 °C with 5% CO2. After 2 h, plates were read using NanoBRET Nano-Glo substrate (Promega #N1573) on a GloMax Discover following the manufacturer’s instructions. No ligand controls were subtracted from each sample and normalized to the no compound DMSO control to obtain Fractional BRET values. EC50 values were calculated for each compound curve.
(In general: Bioluminescence resonance energy transfer reports proximity on the nanometre scale.)

Values joined by “and” are separate entries in the source; they are usually repeats but may differ in a detail not shown here. Equal values may be shown once. A value given as a limit tells only on which side of the number the result lay.

T1 sequence (Q96SW2 whole entry): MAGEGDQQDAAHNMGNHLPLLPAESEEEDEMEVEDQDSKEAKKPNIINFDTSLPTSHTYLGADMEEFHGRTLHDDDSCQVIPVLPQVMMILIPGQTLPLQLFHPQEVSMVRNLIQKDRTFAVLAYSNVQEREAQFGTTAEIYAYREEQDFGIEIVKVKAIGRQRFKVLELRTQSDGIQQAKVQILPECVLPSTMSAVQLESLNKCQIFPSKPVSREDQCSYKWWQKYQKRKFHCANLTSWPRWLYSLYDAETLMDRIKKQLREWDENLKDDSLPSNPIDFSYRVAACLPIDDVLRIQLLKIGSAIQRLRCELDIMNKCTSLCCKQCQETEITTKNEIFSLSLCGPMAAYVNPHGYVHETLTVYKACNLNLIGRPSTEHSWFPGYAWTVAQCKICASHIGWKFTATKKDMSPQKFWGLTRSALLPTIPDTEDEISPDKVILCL
T1 sequence (P48729 whole entry): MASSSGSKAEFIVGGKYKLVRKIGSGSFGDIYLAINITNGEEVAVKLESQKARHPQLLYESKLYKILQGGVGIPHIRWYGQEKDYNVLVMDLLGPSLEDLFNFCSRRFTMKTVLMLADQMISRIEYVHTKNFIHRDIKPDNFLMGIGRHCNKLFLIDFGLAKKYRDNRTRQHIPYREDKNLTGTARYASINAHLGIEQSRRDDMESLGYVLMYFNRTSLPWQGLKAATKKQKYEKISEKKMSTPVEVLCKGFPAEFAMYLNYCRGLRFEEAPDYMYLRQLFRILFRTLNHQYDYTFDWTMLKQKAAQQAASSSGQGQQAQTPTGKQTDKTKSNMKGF
T1 sequence (Q16531 whole entry partner): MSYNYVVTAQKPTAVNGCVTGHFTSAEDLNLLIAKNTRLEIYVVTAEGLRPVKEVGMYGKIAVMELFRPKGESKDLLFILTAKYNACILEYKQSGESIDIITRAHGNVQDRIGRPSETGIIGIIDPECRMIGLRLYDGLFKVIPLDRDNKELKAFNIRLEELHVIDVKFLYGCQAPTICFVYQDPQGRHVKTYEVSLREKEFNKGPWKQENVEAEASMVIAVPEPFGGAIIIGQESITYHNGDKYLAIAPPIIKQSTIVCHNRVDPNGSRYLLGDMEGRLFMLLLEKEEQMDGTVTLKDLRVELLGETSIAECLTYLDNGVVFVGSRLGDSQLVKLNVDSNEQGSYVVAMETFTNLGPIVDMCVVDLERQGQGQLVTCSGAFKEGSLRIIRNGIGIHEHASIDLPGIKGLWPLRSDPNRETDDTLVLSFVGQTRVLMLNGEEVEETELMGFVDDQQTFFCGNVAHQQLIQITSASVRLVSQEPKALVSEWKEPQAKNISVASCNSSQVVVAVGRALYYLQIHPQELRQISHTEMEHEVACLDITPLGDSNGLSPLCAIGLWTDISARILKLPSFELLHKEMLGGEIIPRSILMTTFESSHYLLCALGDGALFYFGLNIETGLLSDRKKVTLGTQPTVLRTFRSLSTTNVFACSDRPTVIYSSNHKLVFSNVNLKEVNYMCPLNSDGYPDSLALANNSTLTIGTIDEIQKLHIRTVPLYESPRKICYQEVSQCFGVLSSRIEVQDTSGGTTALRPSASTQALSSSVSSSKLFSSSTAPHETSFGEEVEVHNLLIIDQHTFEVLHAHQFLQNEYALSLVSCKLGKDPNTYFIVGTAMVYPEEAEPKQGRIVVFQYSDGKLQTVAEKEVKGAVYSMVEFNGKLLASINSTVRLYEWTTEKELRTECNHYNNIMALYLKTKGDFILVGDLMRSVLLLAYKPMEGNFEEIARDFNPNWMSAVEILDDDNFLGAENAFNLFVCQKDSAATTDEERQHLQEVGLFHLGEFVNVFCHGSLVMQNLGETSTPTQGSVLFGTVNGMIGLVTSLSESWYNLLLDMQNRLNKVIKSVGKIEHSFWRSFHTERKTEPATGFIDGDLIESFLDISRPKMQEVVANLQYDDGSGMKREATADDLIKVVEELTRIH

For the compound `O=C1CCC(N2Cc3cc(Nc4noc5ccccc45)ccc3C2=O)C(=O)N1` (stereo not drawn) [SJ3149], in data set [1] (CD-1, mouse, liver microsomes, pH 7.4, read-out: Microsome stability t1/2), the half-life at 10 µM is greater than 10 h. The “CK1a: CRBN Ternary Complex NanoBRET Ratio” value was 3.47 mBU and 2.55 mBU and 2.79 mBU in data set [2] (0.111 uM); 4.12 mBU and 3.68 mBU and 3.78 mBU in data set [2] (0.333 uM); 4.59 mBU and 4.78 mBU and 4.4 mBU in data set [2] (1 uM); 4.96 mBU and 4.79 mBU and 5.46 mBU in data set [2] (3 uM); 5.57 mBU and 5.32 mBU and 5.78 mBU in data set [2] (10 uM, replicates). Further, the “CK1a: CRBN Ternary Complex NanoBRET Ratio, Normalized” value in data set [2] (0.111 uM) is 23.75 and 17.45 and 19.07; in data set [2] (0.333 uM), 28.17 and 25.18 and 25.82; in data set [2] (1 uM) it was 31.39 and 32.66 and 30.10; in data set [2] (3 uM), 33.90 and 32.75 and 37.33; in data set [2] (10 uM, replicates), 38.09 and 36.40 and 39.49. Further, the “Ternary complex formation (NanoBRET signal)” value in data set [2] (2 h treatment) is “most robust complex formation”.

For the compound `O=C1CCC(N2Cc3c(CNC(=O)c4ccc(F)cc4)cccc3C2=O)C(=O)N1` (stereo not drawn) [SJ7095], the “CK1a: CRBN Ternary Complex NanoBRET Ratio” value is 3.3 mBU and 3.11 mBU and 3.22 mBU and 2.76 mBU in data set [2] (0.111 uM); 4.47 mBU and 5.14 mBU and 4.06 mBU and 4.1 mBU in data set [2] (0.333 uM); 5.33 mBU and 5.06 mBU and 5.38 mBU and 4.31 mBU in data set [2] (1 uM); 5.47 mBU and 7.05 mBU and 5.71 mBU and 6.74 mBU in data set [2] (3 uM); 7.23 mBU and 6.62 mBU and 6.74 mBU and 6.49 mBU in data set [2] (10 uM, replicates). Moreover, the “CK1a: CRBN Ternary Complex NanoBRET Ratio, Normalized” value in data set [2] (0.111 uM) was 3.03 and 2.85 and 2.95 and 2.53; in data set [2] (0.333 uM), 4.10 and 4.71 and 3.72 and 3.76; in data set [2] (1 uM), 4.89 and 4.64 and 4.93 and 3.95; in data set [2] (3 uM) it was 5.01 and 6.46 and 5.23 and 6.18; in data set [2] (10 uM, replicates) it was 6.63 and 6.07 and 6.18 and 5.95.

On to `O=C1CCC(N2Cc3cc(Nc4noc5ccccc45)ccc3C2=O)C(=O)N1` (stereo not drawn) [SJ001043149-1], for which, in data set [1], the Ke is on record as -0.01 and the “t(1/2)” value is listed as -69.12.

Source of the values: PMC10791743, “Selective CK1α degraders exert antiproliferative activity against a broad range of human cancer cell lines” (Nature Communications, 2024).
